Experimental data reported in article PMC5395182, “Soaking suggests “alternative facts”: Only co-crystallization discloses major ligand-induced interface rearrangements of a homodimeric tRNA-binding protein indicating a novel mode-of-inhibition” (PLoS ONE, 2017).
Entries after “also recorded” stand apart in the source; their conditions may differ. Like-named read-outs stand apart in the source and are kept apart here.

How the values were obtained:
Z. mobilis TGT [1] = target: T1, Z. mobilis TGT (Zymomonas mobilis subsp. mobilis, UniProt P28720); assay: TGT-catalyzed incorporation of radio-labeled guanine into tRNA (inhibition constants); format: biochemical
T1 construct: Strep-tag II (N, cleaved yes); made in house; host or cells: Escherichia coli
T1 sequence (P28720 whole entry): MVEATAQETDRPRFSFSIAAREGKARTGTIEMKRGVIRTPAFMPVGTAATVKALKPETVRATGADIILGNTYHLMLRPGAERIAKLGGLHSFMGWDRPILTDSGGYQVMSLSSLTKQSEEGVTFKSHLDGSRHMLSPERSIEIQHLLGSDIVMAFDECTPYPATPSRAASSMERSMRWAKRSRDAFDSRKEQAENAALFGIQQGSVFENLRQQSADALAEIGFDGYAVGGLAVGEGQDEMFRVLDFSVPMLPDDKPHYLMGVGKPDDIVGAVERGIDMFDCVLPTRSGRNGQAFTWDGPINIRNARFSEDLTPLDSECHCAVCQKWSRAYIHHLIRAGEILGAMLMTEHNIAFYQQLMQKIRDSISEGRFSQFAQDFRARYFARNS
Procedure: The inhibition constants (Ki) of ligands 1 to 9, which are listed in Fig 2, were determined previously (except that of 4, which was determined in this study)[19, 20, 23, 26] via a well-established assay monitoring the TGT-catalyzed incorporation of radio-labeled guanine into tRNA. […] This substituent addresses the ribose-33/uracil-33 pocket by forming an H-bond to the main chain carbonyl of Ala232 (Fig 1 and S3 and S4 Figs).
The concentration of Z. mobilis TGT amounted to 9 nM, [8-^3H]-guanine was used at a (saturating) concentration of 10 μM and tRNA^Tyr at a concentration of 1.5 μM. Aliquots of 15 μL were withdrawn for scintillation counting every 60 minutes (in total four).
The Ki value was averaged over three measurements. The preparation of E.coli tRNA^Tyr (ECYC2) via in vitro transcription was carried out using the RiboMAX™ Large Scale RNA Production System-T7 (Promega) according to the vendor´s protocol.

TGT homodimer = test system: T2, TGT homodimer; assay: Native ESI-MS of TGT:ligand 1:10 mixtures (dimer destabilization); set-up: species or system Zymomonas mobilis; settings: for Relative proportion of TGT monomers: 2.5 µM TGT and 25 µM inhibitor (1:10), 1 M NH4Ac pH 7.5, without ligand 3.3 ± 0.7 %; for effect on TGT dimer stability / monomer proportion, in words: compared to measurements in the absence of any ligand, TGT:ligand 1:10
T2 construct: Strep-tag II (N, cleaved yes); made in house; host or cells: Escherichia coli
Procedure: In order to gain insights into the dimer disturbing potential seen in the crystal structures with the different ligands and to collect evidence for such a behavior also present in solution, native ESI-MS was performed. This technique enables to monitor the oligomerization state of TGT at equilibrium under non-denaturing conditions, in the absence or presence of saturating ligand concentrations. […] To ensure reliability, these comparative experiments were thus carried out adhering to strictly similar conditions (see Materials and methods).
Relative proportions of TGT-monomer signals extracted from individual 1:10 TGT:ligand mixtures (TGT monomer 2.5 μM) were quantified (S7 Fig, S1 Table) and normalized with respect to this value in the absence of any inhibitor.
Nano-ESI-MS analyses were performed as already described in the literature. Briefly, WT-TGT samples were exchanged twice against a 1 M ammonium acetate pH 7.5 buffer using microcentrifuge gel-filtration columns (Zeba 0.5 mL, Thermo Scientific). Next, protein concentration was determined spectrophotometrically at 280 nm (Nano-Drop 2000 spectrophotometer, Thermo Scientific).
Native MS experiments were carried out on a hybrid Q-TOF mass spectrometer (Synapt G2 HDMS, Waters) equipped with an automated chip-based nanoESI source (Triversa Nanomate, Advion Biosciences) operating in the positive ion mode. External calibrations were generated from the multiple charged ions produced by a 2 μM horse heart myoglobin solution diluted in a 1:1 (v/v) water: acetonitrile mixture acidified with 1% (v/v) formic acid (denaturing MS) and singly charged cesium iodide clusters diluted to 2 g∙L^-1 in a 1:1 (v/v) water: isopropanol solution (native MS).
Titration experiments in native conditions (1 M NH4Ac pH 7.5) were next triggered by mixing 2.5 μM TGT monomers with 25 μM of each ligand separately (ratio 1:10). The final DMSO concentration of each mixture never exceeded 0.25% (v/v). Non-covalent TGT dimers and TGT-ligand complexes were preserved in the gas phase according fine-tuned instrumental parameters, improving ion desolvation and transmission while maintaining intact structures (Vc = 80V, Pi = 6 mbar).
Relative quantification of TGT monomers was performed from charge states peak intensities of both monomeric (10 to 14+) and dimeric complexes (15 to 20+), using MassLynx 4.1 (Waters). TGT dimer disruption was determined for each ligand through their destabilization factor (Fig 8) which corresponds to their associated ratio of TGT monomers normalized from the apo-condition (S7 Fig; S1 Table). Standard deviations are calculated here from analytical triplicates. For the sake of reliability and comparability, all these experiments were performed within the same day, from identical experimental and instrumental conditions using the same buffer exchanged TGT batch (frozen and thawed only once).

[2] = Ligand dilution in native MS buffer (precipitation); format: physicochemical; settings: 1 M NH4Ac pH 7.5
Z. mobilis TGT [3] = target: T1, Z. mobilis TGT; settings: cited from earlier work
Z. mobilis TGT [4] = target: T1, Z. mobilis TGT; set-up: method as in PMID 24955548; settings: cited from earlier work
[5] = ionization corrected, data for 1 determined previously

SMILES	Ki (Z. mobilis TGT [1]; determined in this study, competitive with respect to tRNA substrate, averaged over three measurements) [nM]	Relative proportion of TGT monomers (TGT homodimer) [%]	effect on TGT dimer stability / monomer proportion, in words (TGT homodimer)	precipitation upon ligand dilution in buffer [2]	factor by which 1 is more potent than 3 (Z. mobilis TGT [1]; radio-labeled assay, Ki ratio 1 vs 3)	increase of affinity compared to the unsubstituted lin-benzoguanine (factor) (Z. mobilis TGT [3]; Ki ratio)	Ki (Z. mobilis TGT [3]) [nM]	-TΔS^0 (Z. mobilis TGT [4]; HEPES buffer)	ΔH^0obs (Z. mobilis TGT [4]; HEPES buffer)	Kd (Z. mobilis TGT [4]; ITC, 298 K) [nM]	ΔG^0 (Z. mobilis TGT [4]; ITC)	-TΔS^0 (Z. mobilis TGT [4]; TRIS buffer)	ΔH^0obs (Z. mobilis TGT [4]; TRIS buffer)	-TΔS^0 (Z. mobilis TGT [4]; Tricin buffer)	ΔH^0obs (Z. mobilis TGT [4]; Tricin buffer)	-TΔS^0 (Z. mobilis TGT [4]; [5]) [kJ/mol]	ΔH^0bind (Z. mobilis TGT [4]; [5]) [kcal/mol]	protons picked up during binding (Z. mobilis TGT [4]; slope of linear regression)
CNc1nc2c(CCNCC3CCC(C#Cc4cccnc4)CC3)c3nc(N)[nH]c(=O)c3cc2[nH]1 (centres unmarked) [Inhibitor 4]	193 ± 41	5.6	small effect might be given	partial precipitation; also recorded: To a lower extent, a similar phenomenon was also observed														
CNc1nc2cc3nc(N)[nH]c(=O)c3cc2[nH]1 [Inhibitor 1]		3.4	No effect on dimer stability		6	70	58 ± 36	34.2 ± 1.9^29 kJ∙mol^-1	-74.8 ± 1.8^29 kJ∙mol^-1	52 ± 7	-41.6 ± 0.3^29 kJ∙mol^-1	9.3 ± 0.9^29 kJ∙mol^-1	-50.9 ± 0.9^29 kJ∙mol^-1	25.1 ± 0.3^29 kJ∙mol^-1	-66.7 ± 0.1^29 kJ∙mol^-1	52.0	-22.4	0.89 protons per mole of the formed complex
